Test results published in patent publication US20240238423A9, “TETRAHYDROISOQUINOLINE HETEROBIFUNCTIONAL BCL-XL DEGRADERS” (Treeline Biosciences, Inc., priority 2022, published 2024).
Where two headings read alike, the source gives them in different places.

Biological target: T1, Human BCL-XL protein (N-terminal HiBiT tagged BCL-XL in HT1080 cells) (Homo sapiens, UniProt Q07817)
T1 construct: expressed in transfected cells; host or cells: HT-1080 (ATCC CCL-121), stably transduced with lentivirus pLV-UBC-N-HiBiT-BCL-XL-PGK-puro and selected with puromycin
T1 sequence (Q07817 whole entry): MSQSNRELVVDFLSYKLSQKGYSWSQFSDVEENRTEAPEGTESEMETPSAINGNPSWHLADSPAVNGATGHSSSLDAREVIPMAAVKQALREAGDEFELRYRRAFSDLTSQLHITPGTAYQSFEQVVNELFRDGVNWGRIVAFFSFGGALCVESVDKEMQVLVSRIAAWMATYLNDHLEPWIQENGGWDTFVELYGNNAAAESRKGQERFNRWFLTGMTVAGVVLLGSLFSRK
Assay: HiBiT based degradation assay
Type: cell-based
Details: HT1080 cells expressing HiBiT-BCL-XL; for Ymin (6 h) / Ymin (24 h): BCL-XL degradation normalized with DMSO control; for DC50: BCL-XL degradation
How it was run: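 This HiBiT degradation assay measured loss of BCL-XL in HT1080 cells that stably express an N-terminal HiBiT-BCL-XL fusion delivered by lentivirus. Cells were added to compound-spotted 384-well plates, and luminescence was read on a PHERAstar FSX reader. Signal was expressed relative to DMSO controls, curves were fitted by four-parameter logistic regression, and for hook-shaped curves the Ymin point served as the bottom plateau when calculating EC50.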

Ymin (6 h)	Ymin (24 h)	DC50 (6 h, read-out: EC50 (6 h)) [nM]	DC50 (24 h, read-out: EC50 (24 h)) [nM]	Compound
A (Ymin < 50%)	A (Ymin < 50%)	< 100	< 100	Cc1c(OCCCN2CCN(CC(=O)N3CCN(c4ccc5c(C6CCC(=O)NC6=O)nn(C)c5c4)CC3)CC2)cccc1-c1ccc(N2CCc3cccc(C(=O)Nc4nc5ccccc5s4)c3C2)nc1C(=O)O (stereo not shown) [Compound 140, 6-(8-(Benzo[d]thiazol-2-ylcarbamoyl)-3,4-dihydroisoquinolin-2(1H)-yl)-3-(3-(3-(4-(2-(4-(3-(2,6-dioxopiperidin-3-yl)-1-methyl-1H-indazol-6-yl)piperazin-1-yl)-2-oxoethyl)piperazin-1-yl)propoxy)-2-methylphenyl)picolinic acid]
B (50% ≤ Ymin < 70%)	–	< 100	–	Cc1c(-c2ccc(N3CCc4cccc(C(=O)Nc5nc6ccccc6s5)c4C3)nc2C(=O)NCCCCCCCCCC(=O)Nc2cccc3c(C4CCC(=O)NC4=O)nn(C)c23)cnn1CC12CC3CC(CC(C3)C1)C2 [Compound 109, 2-(5-(1-((3R, 5R, 7R)-adamantan-1-ylmethyl)-5-methyl-1H-pyrazol-4-yl)-6-((10-((3-(2,6-dioxopiperidin-3-yl)-1-methyl-1H-indazol-7-yl)amino)-10-oxodecyl)carbamoyl)pyridin-2-yl)-N-(benzo[d]thiazol-2-yl)-1,2,3,4-tetrahydroisoquinoline-8-carboxamide]
–	A (Ymin < 50%)	–	< 100	Cc1c(O[C@H]2CC[C@H](CCCN3CCC(Oc4cccc5c(C6CCC(=O)NC6=O)nn(C)c45)CC3)CC2)cccc1-c1ccc(N2CCc3cccc(C(=O)Nc4nc5ccccc5s4)c3C2)nc1C(=O)O (stereo partly shown) [Compound 338a, 6-(8-(benzo[d]thiazol-2-ylcarbamoyl)-3,4-dihydroisoquinolin-2(1H)-yl)-3-(3-(((1s,4r)-4-(3-(4-((3-(2,6-dioxopiperidin-3-yl)-1-methyl-1H-indazol-7-yl)oxy)piperidin-1-yl)propyl)cyclohexyl)oxy)-2-methylphenyl)picolinic acid]
B (50% ≤ Ymin < 70%)	–	< 100	–	Cc1c(Oc2ccc(CCC(=O)Nc3ccc(C4CCC(=O)NC4=O)cc3)cc2)cccc1-c1ccc(N2CCc3cccc(C(=O)Nc4nc5ccccc5s4)c3C2)nc1C(=O)O (stereo not shown) [Compound 102, 6-[8-(1,3-benzothiazol-2-ylcarbamoyl)-3,4-dihydro-1H-isoquinolin-2-yl]-3-[3-[4-[3-[4-(2,6-dioxo-3-piperidyl)anilino]-3-oxo-propyl]phenoxy]-2-methyl-phenyl]pyridine-2-carboxylic acid]
–	B (50% ≤ Ymin < 70%)	–	< 100	Cc1c(OCCC[C@H]2CCN(CC(=O)Nc3cccc4c(C5CCC(=O)NC5=O)nn(C)c34)C2)cccc1-c1ccc(N2CCc3cccc(C(=O)Nc4nc5ccccc5s4)c3C2)nc1C(=O)O (stereo partly drawn) [Compound 240b, 6-(8-(benzo[d]thiazol-2-ylcarbamoyl)-3,4-dihydroisoquinolin-2(1H)-yl)-3-(3-(3-((3S)-1-(2-((3-(2,6-dioxopiperidin-3-yl)-1-methyl-1H-indazol-7-yl)amino)-2-oxoethyl)pyrrolidin-3-yl)propoxy)-2-methylphenyl)picolinic acid]
B (50% ≤ Ymin < 70%)	B (50% ≤ Ymin < 70%)	100 to 1000	< 100	Cc1c(Oc2ccc(CCCN3CCN(c4cccc5c(C6CCC(=O)NC6=O)nn(C)c45)CC3)cc2)cccc1-c1ccc(N2CCc3cccc(C(=O)Nc4nc5ccccc5s4)c3C2)nc1C(=O)O (stereo not shown) [Compound 150, 6-[8-(1,3-benzothiazol-2-ylcarbamoyl)-3,4-dihydro-1H-isoquinolin-2-yl]-3-[3-[4-[3-[4-[3-(2,6-dioxo-3-piperidyl)-1-methyl-indazol-7-yl]piperazin-1-yl]propyl]phenoxy]-2-methyl-phenyl]pyridine-2-carboxylic acid]
–	A (Ymin < 50%)	–	< 100	Cc1c(OCCC2CCN(CC3CCN(c4cccc5c(C6CCC(=O)NC6=O)nn(C)c45)CC3)CC2)cccc1-c1ccc(N2CCc3cccc(C(=O)Nc4nc5ccccc5s4)c3C2)nc1C(=O)O (stereo not shown) [Compound 261, 6-[8-(1,3-benzothiazol-2-ylcarbamoyl)-3,4-dihydro-1H-isoquinolin-2-yl]-3-[3-[2-[1-[[1-[3-(2,6-dioxo-3-piperidyl)-1-methyl-indazol-7-yl]-4-piperidyl]methyl]-4-piperidyl]ethoxy]-2-methyl-phenyl]pyridine-2-carboxylic acid]
–	B (50% ≤ Ymin < 70%)	–	< 100	Cc1c(Oc2ccc(CCCCN3CCN(c4cccc5c(C6CCC(=O)NC6=O)nn(C)c45)CC3)cc2)cccc1-c1ccc(N2CCc3cccc(C(=O)Nc4nc5ccccc5s4)c3C2)nc1C(=O)O (stereo not shown) [Compound 175, 6-(8-(benzo[d]thiazol-2-ylcarbamoyl)-3,4-dihydroisoquinolin-2(1H)-yl)-3-(3-(4-(4-(4-(3-(2,6-dioxopiperidin-3-yl)-1-methyl-1H-indazol-7-yl)piperazin-1-yl)butyl)phenoxy)-2-methylphenyl)picolinic acid]
–	A (Ymin < 50%)	–	< 100	Cc1c(OCCCC2CCN(CCc3ccc4c(C5CCC(=O)NC5=O)nn(C)c4c3)CC2)cccc1-c1ccc(N2CCc3cccc(C(=O)Nc4nc5ccccc5s4)c3C2)nc1C(=O)O (stereo not shown) [Compound 303, 6-(8-(benzo[d]thiazol-2-ylcarbamoyl)-3,4-dihydroisoquinolin-2(1H)-yl)-3-(3-(3-(1-(2-(3-(2,6-dioxopiperidin-3-yl)-1-methyl-1H-indazol-6-yl)ethyl)piperidin-4-yl)propoxy)-2-methylphenyl)picolinic acid]
–	B (50% ≤ Ymin < 70%)	–	< 100	Cc1c(O[C@H]2CC[C@@H](CCCN3CCN(c4cccc5c(C6CCC(=O)NC6=O)nn(C)c45)CC3)CC2)cccc1-c1ccc(N2CCc3cccc(C(=O)Nc4nc5ccccc5s4)c3C2)nc1C(=O)O (stereo partly shown) [Compound 147b, 6-(8-(benzo[d]thiazol-2-ylcarbamoyl)-3,4-dihydroisoquinolin-2(1H)-yl)-3-(3-(((1r,4s)-4-(3-(4-(3-(2,6-dioxopiperidin-3-yl)-1-methyl-1H-indazol-7-yl)piperazin-1-yl)propyl)cyclohexyl)oxy)-2-methylphenyl)picolinic acid]
B (50% ≤ Ymin < 70%)	A (Ymin < 50%)	< 100	< 100	Cc1c(OCCCCCCN2CCN(c3ccc4c(C5CCC(=O)NC5=O)nn(C)c4c3)CC2)cccc1-c1ccc(N2CCc3cccc(C(=O)Nc4nc5ccccc5s4)c3C2)nc1C(=O)O (stereo not shown) [Compound 222, 6-(8-(benzo[d]thiazol-2-ylcarbamoyl)-3,4-dihydroisoquinolin-2(1H)-yl)-3-(3-((6-(4-(3-(2,6-dioxopiperidin-3-yl)-1-methyl-1H-indazol-6-yl)piperazin-1-yl)hexyl)oxy)-2-methylphenyl)picolinic acid]
–	B (50% ≤ Ymin < 70%)	–	< 100	Cc1c(O[C@H]2CC[C@H](CCN3CCN(c4ccc5c(C6CCC(=O)NC6=O)nn(C)c5c4)CC3)CC2)cccc1-c1ccc(N2CCc3cccc(C(=O)Nc4nc5ccccc5s4)c3C2)nc1C(=O)O (stereo partly shown) [Compound 211a, 6-(8-(benzo[d]thiazol-2-ylcarbamoyl)-3,4-dihydroisoquinolin-2(1H)-yl)-3-(3-(((1r,4r)-4-(2-(4-(3-(2,6-dioxopiperidin-3-yl)-1-methyl-1H-indazol-6-yl)piperazin-1-yl)ethyl)cyclohexyl)oxy)-2-methylphenyl)picolinic acid]
A (Ymin < 50%)	A (Ymin < 50%)	< 100	< 100	Cc1c(OCCCN2C[C@@H](C)N(CC(=O)Nc3ccc4c(C5CCC(=O)NC5=O)nn(C)c4c3)[C@@H](C)C2)cccc1-c1ccc(N2CCc3cccc(C(=O)Nc4nc5ccccc5s4)c3C2)nc1C(=O)O (stereo partly drawn) [Compound 116a, 6-[8-(1,3-benzothiazol-2-ylcarbamoyl)-3,4-dihydro-1H-isoquinolin-2-yl]-3-[3-[3-[(3S,5R)-4-[2-[[3-(2,6-dioxo-3-piperidyl)-1-methyl-indazol-6-yl]amino]-2-oxo-ethyl]-3,5-dimethyl-piperazin-1-yl]propoxy]-2-methyl-phenyl]pyridine-2-carboxylic acid]

Compound	Ymin (6 h)	Ymin (24 h)	DC50 (6 h, read-out: EC50 (6 h)) [nM]	DC50 (24 h, read-out: EC50 (24 h)) [nM]
Cc1c(OCCCCC2CCN(CC(=O)Nc3cccc4c(C5CCC(=O)NC5=O)nn(C)c34)CC2)cccc1-c1ccc(N2CCc3cccc(C(=O)Nc4nc5ccccc5s4)c3C2)nc1C(=O)O (stereo not shown) [Compound 213, 6-(8-(benzo[d]thiazol-2-ylcarbamoyl)-3,4-dihydroisoquinolin-2(1H)-yl)-3-(3-(4-(1-(2-((3-(2,6-dioxopiperidin-3-yl)-1-methyl-1H-indazol-7-yl)amino)-2-oxoethyl)piperidin-4-yl)butoxy)-2-methylphenyl)picolinic acid]	C (Ymin ≥ 70%)	A (Ymin < 50%)	1000 to 10000	100 to 1000
Cc1c(OCCCCN2CCC(CN3CCN(c4ccc5c(C6CCC(=O)NC6=O)nn(C)c5c4)CC3)CC2)cccc1-c1ccc(N2CCc3cccc(C(=O)Nc4nc5ccccc5s4)c3C2)nc1C(=O)O (stereo not shown) [Compound 235, 6-[8-(1,3-benzothiazol-2-ylcarbamoyl)-3,4-dihydro-1H-isoquinolin-2-yl]-3-[3-[4-[4-[[4-[3-(2,6-dioxo-3-piperidyl)-1-methyl-indazol-6-yl]piperazin-1-yl]methyl]-1-piperidyl]butoxy]-2-methyl-phenyl]pyridine-2-carboxylic acid]	–	A (Ymin < 50%)	–	< 100
